Reference: patent US10813920B2, “Drug for treating corneal endothelium by promoting cell proliferation or inhibiting cell damage” (THE DOSHISHA, priority 2013, dated 2020)

What was measured:
[1] = system: human corneal endothelial cells; experiment: BrdU uptake ELISA in cultured human corneal endothelial cells (Example 2); format: cell-based; details: ELISA after 3 days; 1, 3, 10, 30 μM; relative to control
Experimental: *The amount of IL-6 expression of human corneal endothelial cells was quantified by RT-PCR by the following method. Human corneal endothelial cells (n=3, passage 5) were cultured for 20 days in the presence of 10 μM of SB203580, and then RNA was extracted with RneasyMini (QIAGEN). 277 ng of total RNA was reverse-transcribed with RevertraAce (Toyobo) and cDNA synthesized into a template to perform PCR. 10 μl of PCR solution containing 1 μl of reaction mixture from single strand cDNA synthesis was heated for 1 minute at an initial temperature of 94° C. and then 1 minute at 94° C., 30 seconds at 54° C., and 30 seconds at 72° C. The temperature cycle was repeated 30 times. IL-6 sense primer: […] (SEQ ID NO: 1) IL-6 antisense primer: […] (SEQ ID NO: 2) *ELISA (BrdU): Cells were seeded on a 96-well culture plate at a seeding density of 5000 cells/well. […] The reaction was stopped with 1M sulfuric acid to measure the absorbance at 450 nm with a plate reader. […] The amount of IL-6 protein in a culture supernatant collected after 7 days was quantified in accordance with the manual of DuoSetELISA human IL-6 (R & D Cat # DY206). […] The plate was washed and the bound peroxidase was detected with a substrate solution (R&D Systems Cat # DY999). The coloring reaction was stopped with 2M of H2SO4 to read out the plate with Multimax (Promega) at […]. […]

[2] = system: corneal endothelial cells; experiment: Western blotting of cyclin dependent kinase inhibiting factors and G1/S transition molecules in cultured corneal endothelial cells; format: cell-based, human
p38 MAP kinase signal = experiment: Western blotting of phosphorylated ATF2, downstream molecule of p38 MAP kinase signal; format: cell-based, human; details: Western blotting after 20 days from stimulation; 10 μM and 30 μM
Experimental: *Human corneal endothelial cells (HCEC, where the cells were obtained and culturing method thereof): HCEC was cultured as follows. In short, Descemet's membrane including corneal endothelial cells was peeled off from a corneal for research purchased from the Seattle Eye Bank, and the corneal endothelial cells were mechanically peeled off with a basal membrane. […] Specifically, after digestion at 37° C., HCEC obtained from individual corneas was resuspended in a culture medium and plated on a well of a 12-well plate coated with FNC Coating Mix®. The culture medium was prepared in accordance with a partially-modified disclosed protocol. In short, a basal cultural medium containing OptiMEM-I (Life Technologies), 8% FBS, 5 ng/mL of epithelial growth factor (EGF) (Sigma-Aldrich Co., St. Louis, Mo.), 20 μg/mL of ascorbic acid (Sigma-Aldrich), 200 mg/L calcium chloride (Sigma-Aldrich), 0.08% chondroitin sulfate (Wako Pure Chemical Industries, Osaka) and 50 μg/mL of gentamicin was prepared and an acclimated medium was collected after inactivated 3T3 fibroblasts were cultured. The 3T3 fibroblasts were inactivated as previously described. […] Immunostaining was applied to the cells for observation with a fluorescence microscope. […]

[3] = Western blotting after 20 days, 10 μM and 30 μM vs control
[4] = Western blotting, 10 μM, after 12 hours and 24 hours

For `C[S+]([O-])c1ccc(-c2nc(-c3ccncc3)c(-c3ccc(F)cc3)[nH]2)cc1` (centres unmarked) [SB203580, 4-(4-fluorophenyl)-2-(4-methylsulfinylphenyl)-5-(4-pyridyl)-1H-imidazole], the BrdU uptake [1] was “significantly promoted”, the “expression of p16” value [2, 3] was “suppressed” and the “expression of p21” value [2, 3] was “suppressed”. The “expression of p27” value [2, 3] was “suppressed”, the “Rb protein phosphorylation (p-pRb)” value [2, 4] was “promoted” and the “cyclin D1 expression” value [2, 4] was “promoted”. For the same molecule, the “cyclin D3 expression” value [2, 4] was “promoted” and the “phosphorylation of ATF2” value (p38 MAP kinase signal) was “suppressed”.
